Assay results: US20220313698A1, “MODULATORS OF CYSTIC FIBROSIS TRANSMEMBRANE CONDUCTANCE REGULATOR” (Vertex Pharmaceuticals Incorporated, priority 2019, published 2022)
Several values for one entry are separate records, joined by “and”; a condition that tells them apart may be missing. Equal values may be shown once. Read-outs that look alike come from different tables or passages of the source. Each block holds one compound with its values, some of them ahead of it.

How the values were obtained:
[1] = snar bond, 15-membered ring
[2] = target: T1, CFTR-mediated chloride transport (Homo sapiens, UniProt P13569); experiment: Corrector Assay A - membrane potential dye assay (enteroid cells); settings: for Corrector Assay A % activity: % of chloride transport of triple combination control (1 μM (14S)-dispiro macrocycle + 3 μM tezacaftor + 300 nM ivacaftor); for EC50: read-out: Corrector Assay A EC50, human intestinal enteroid cells, 18-24 h incubation, acute 10 μM forskolin + 300 nM ivacaftor
[3] = snar bond
[4] = target: T1, CFTR-mediated chloride transport; experiment: Corrector Assay B - membrane potential dye assay (enteroid cells); settings: for Corrector Assay B % activity: % of chloride transport of triple combination control (3 μM Compound A + 3 μM tezacaftor + 300 nM ivacaftor); for EC50: read-out: Corrector Assay B EC50, human intestinal enteroid cells, 18-24 h incubation, acute 10 μM forskolin + 300 nM ivacaftor;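 as to all read-outs here: methyl oxonol membrane potential fluorescence followed over 15 min after switching to chloride-free buffer with forskolin, 100 µM IBMX and ivacaftor, in presence of CaCC blockers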
Description: Base medium (ADF+++) consisted of Advanced DMEM/Ham's F12, 2 mM Glutamax, 10 mM HEPES, 1 μg/ml penicillin/streptomycin.
Intestinal enteroid maintenance medium (IEMM) consisted of ADF+++, 1×B27 supplement, 1×N2 supplement, 1.25 mM N-acetyl cysteine, 10 mM Nicotinamide, 50 ng/mL hEGF, 10 nM Gastrin, 1 μg/mL hR-spondin-1, 100 ng/mL hNoggin, TGF-b type 1 inhibitor A-83-01, 100 μg/mL Primocin, 10 μM P38 MAPK inhibitor SB202190.
Bath 1 Buffer consisted of 1 mM MgCl2, 160 mM NaCl, 4.5 mM KCl, 10 mM HEPES, 10 mM Glucose, 2 mM CaCl2).
Chloride Free Buffer consisted of 1 mM Magnesium Gluconate, 2 mM Calcium Gluconate, 4.5 mM Potassium Gluconate, 160 mM Sodium Gluconate, 10 mM HEPES, 10 mM Glucose.
Bath 1 Dye Solution consisted of Bath 1 Buffer, 0.04% Pluronic F127, 20 μM Methyl Oxonol, 30 μM CaCCinh-A01, 30 μM Chicago Sky Blue.
Chloride Free Dye Solution consisted of Chloride Free Buffer, 0.04% Pluronic F127, 20 μM Methyl Oxonol, 30 μM CaCCinh-A01, 30 μM Chicago Sky Blue.
Chloride Free Dye Stimulation Solution consisted of Chloride Free Dye Solution, 10 μM forskolin, 100 μM IBMX, and 300 nM Ivacaftor.
Cells were recovered in cell recovery solution, collected by centrifugation at 650 rpm for 5 min at 4° C., resuspended in TryPLE and incubated for 5 min at 37° C. Cells were then collected by centrifugation at 650 rpm for 5 min at 4° C. and resuspended in IEMM containing 10 μM ROCK inhibitor (RI). The cell suspension was passed through a 40 μm cell strainer and resuspended at 1×10^6 cells/mL in IEMM containing 10 μM RI. Cells were seeded at 5000 cells/well into multi-well plates and incubated for overnight at 37° C., 95% humidity and 5% CO2 prior to assay.
Briefly, cells were washed 5 times in Bath 1 Buffer. Bath 1 Dye Solution was added and the cells were incubated for 25 min at room temperature. Following dye incubation, cells were washed 3 times in Chloride Free Dye Solution. Chloride transport was initiated by addition of Chloride Free Dye Stimulation Solution and the fluorescence signal was read for 15 min. The CFTR-mediated chloride transport for each condition was determined from the AUC of the fluorescence response to acute forskolin and 300 nM N-[2,4-bis(1,1-dimethylethyl)-5-hydroxyphenyl]-1,4-dihydro-4-oxoquinoline-3-carboxamide stimulation. Chloride transport was then expressed as a percentage of the chloride transport following treatment with 3 μM Compound A, 3 μM (R)-1-(2,2-difluorobenzo[d][1,3]dioxol-5-yl)-N-(1-(2,3-dihydroxypropyl)-6-fluoro-2-(1-hydroxy-2-methylpropan-2-yl)-1H-indol-5-yl)cyclopropanecarboxamide and 300 nM acute N-[2,4-bis(1,1-dimethylethyl)-5-hydroxyphenyl]-1,4-dihydro-4-oxoquinoline-3-carboxamide triple combination control (% Activity).

[5] = from CC1(C)C[C@H](CCC(Nc2cccc(S(=O)(=O)NC(=O)c3ccc(C(C)(C)C)nc3F)n2)c2cccc(Br)n2)CN1, 15-membered ring, K2CO3, NMP, 21.9 mM, 165.0 °C, 16.0 h

Structure (SMILES): CC1(C)CC(C2CC[C@@H]3CN(c4nc(C(C)(C)C)ccc4C(=O)NS(=O)(=O)c4cccc(n4)N2)C(C)(C)C3)CC(C)(C)O1 (mixture of isomers)
ring closure, isolated yield ([1]; from 6-tert-Butyl-N-[[6-[[3-[(3S)-5,5-dimethylpyrrolidin-3-yl]-1-(2,2,6,6-tetramethyltetrahydropyran-4-yl)propyl]amino]-2-pyridyl]sulfonyl]-2-fluoro-pyridine-3-carboxamide (Trifluoroacetic Acid (1)), K2CO3, DMF, 80.7 mM, 140.0 °C): 48%

Structure (SMILES): C=CC1CC[C@@H]2CN(c3nc(C(C)(C)C)ccc3C(=O)NS(=O)(=O)c3cccc(n3)N1)C(C)(C)C2 (stereo partly drawn)
ring closure, isolated yield ([1]; from C=CC(CC[C@@H]1CN(C(=O)OC(C)(C)C)C(C)(C)C1)Nc1cccc(S(=O)(=O)NC(=O)c2ccc(C(C)(C)C)nc2F)n1, K2CO3, NMP, 159.0 mM, 150.0 °C, 2 steps): 22% and 25%

Structure (SMILES): CC1(C)C[C@@H]2CCCn3nnnc3CNc3cccc(n3)S(=O)(=O)NC(=O)c3ccc(-n4ccc(OCCC5(C(F)(F)F)CC5)n4)nc3N1C2 [Compound 380, (12S)-14,14-dimethyl-18-(3-{2-[1-(trifluoromethyl)cyclopropyl]ethoxy}-1H-pyrazol-1-yl)-24λ^6-thia-2,5,6,7,8,15,17,23,29-noNaazapentacyclo [23.3.1.112,15.04,8.016,21]triaconta-1(28),4,6,16,18,20,25(29),26-octaene-22,24,24-trione]
ring closure, yield after HPLC ([3]; from CC1(C)C[C@H](CCCn2nnnc2CNc2cccc(S(=O)(=O)NC(=O)c3ccc(-n4ccc(OCCC5(C(F)(F)F)CC5)n4)nc3Cl)n2)CN1, 18-membered ring, K2CO3/3A MS, DMSO, 35.1 mM, 155.0 °C, 16.0 h, 2 steps): 41%
Corrector Assay B % activity [4]: +++ (+++ is >60%)
EC50 [4]: < 1000 nM

Structure (SMILES): CC(C)(C)c1ccc2c(n1)N1C[C@@H](CCC(c3cc(Br)ccn3)Nc3cccc(n3)S(=O)(=O)NC2=O)CC1(C)C (stereo partly drawn)
ring closure, isolated yield ([1]; from CC(C)(C)OC(=O)N1C[C@@H](CCC(Nc2cccc(S(=O)(=O)NC(=O)c3ccc(C(C)(C)C)nc3F)n2)c2cc(Br)ccn2)CC1(C)C, K2CO3, NMP, 77.8 mM, 150.0 °C, 2 steps): 21%

Structure (SMILES): CC(C)(C)c1ccnc(C2CC[C@@H]3CN(c4nc(-n5ccc(OCCC6C7(CC7)C67CC7)n5)ccc4C(=O)NS(=O)(=O)c4cccc(n4)N2)C(C)(C)C3)c1 (stereo partly drawn)
ring closure, isolated yield ([1]; from CC(C)(C)OC(=O)N1C[C@@H](CCC(Nc2cccc(S(=O)(=O)NC(=O)c3ccc(-n4ccc(OCCC5C6(CC6)C56CC6)n4)nc3Cl)n2)c2cc(C(C)(C)C)ccn2)CC1(C)C, K2CO3, NMP, 48.8 mM, 140.0 °C, 2 steps): 44.5%

Structure (SMILES): CC(C)(C)c1ccnc(C2CC[C@H]3CCN(C3)c3nc(C(C)(C)C)ccc3C(=O)NS(=O)(=O)c3cccc(n3)N2)c1 (stereo partly drawn)
ring closure, isolated yield ([1]; from CC(C)(C)c1ccnc(C(CC[C@H]2CCNC2)Nc2cccc(S(=O)(=O)NC(=O)c3ccc(C(C)(C)C)nc3F)n2)c1, K2CO3, DMSO, 77.9 mM, 120.0 °C, 2.0 h): 54%

Structure (SMILES): CC(C)(C)CC1CNc2cccc(n2)S(=O)(=O)NC(=O)c2ccc(C(C)(C)C)nc2N2C[C@@H](C1)CC2(C)C (stereo partly drawn)
ring closure, isolated yield ([1]; from CC(C)(C)CC(CNc1cccc(S(=O)(=O)NC(=O)c2ccc(C(C)(C)C)nc2F)n1)C[C@@H]1CNC(C)(C)C1, K2CO3, DMSO, 94.7 mM, 120.0 °C, 24.0 h): 27%

Structure (SMILES): CC(C)(C)c1ccnc(C2CC[C@@H]3CN(c4cc(C(C)(C)C)c(Br)cc4C(=O)NS(=O)(=O)c4cccc(n4)N2)C(C)(C)C3)c1 (stereo partly drawn)
ring closure, isolated yield ([1]; from CC1(C)C[C@H](CCC(Nc2cccc(S(=O)(=O)NC(=O)c3cc(Br)c(C(C)(C)C)cc3F)n2)c2cc(C(C)(C)C)ccn2)CN1, Cs2CO3, DMSO, 58.3 mM, 150.0 °C, 96.0 h): 17%

Structure (SMILES): CC1(C)C[C@@H]2CCCN(Cc3nn[nH]n3)c3cccc(n3)S(=O)(=O)NC(=O)c3ccc(-n4ccc(OCCC5(C(F)(F)F)CC5)n4)nc3N1C2 [Compound 372, (14S)-12,12-Dimethyl-18-[(2H-1,2,3,4-tetrazol-5-yl)methyl]-8-(3-{2-[1-(trifluoromethyl)cyclopropyl]ethoxy}-1H-pyrazol-1-yl)-2λ^6-thia-3,9,11,18,23-pentaazatetracyclo[17.3.1.111,14.05,10]tetracosa-1(23),5(10),6,8,19,21-hexaene-2,2,4-trione]
ring closure, yield after HPLC ([3]; from CC1(C)C[C@H](CCCN(Cc2nn[nH]n2)c2cccc(S(=O)(=O)NC(=O)c3ccc(-n4ccc(OCCC5(C(F)(F)F)CC5)n4)nc3Cl)n2)CN1, 15-membered ring, K2CO3/3A MS, DMSO, 25.8 mM, 155.0 °C, 18.0 h, 2 steps): 18%
Corrector Assay B % activity [4]: +++ (+++ is >60%)
EC50 [4]: 1000 to 3000 nM

Structure (SMILES): CC1(C)C[C@@H]2CCCN(CC(O)CO)c3cccc(n3)S(=O)(=O)NC(=O)c3ccc(-n4ccc(OCCC5(C(F)(F)F)CC5)n4)nc3N1C2 (stereo partly drawn) [Compound 382, (14S)-18-(2,3-dihydroxypropyl)-12,12-dimethyl-8-(3-{2-[1-(trifluoromethyl)cyclopropyl]ethoxy}-1H-pyrazol-1-yl)-2λ^6-thia-3,9,11,18,23-pentaazatetracyclo [17.3.1.111,14.05,10]tetracosa-1(22),5,7,9,19(23),20-hexaene-2,2,4-trione]
ring closure, yield after HPLC ([3]; from CC(C)(C)OC(=O)N1C[C@@H](CCCN(CC2COC(C)(C)O2)c2cccc(S(=O)(=O)NC(=O)c3ccc(-n4ccc(OCCC5(C(F)(F)F)CC5)n4)nc3Cl)n2)CC1(C)C, 15-membered ring, K2CO3/4A MS, DMSO, 38.5 mM, 140.0 °C, 2 steps): 59%
Corrector Assay B % activity [4]: +++ (+++ is >60%)
EC50 [4]: < 1000 nM

More lines, main results first:

Corrector Assay A % activity [2]: ++ (++ is 30-60%)
EC50 [2]: < 1000 nM
Structure (SMILES): CC1(C)CCCc2cc3c(nc21)N1C[C@@H](CCCNc2cccc(n2)S(=O)(=O)NC3=O)CC1(C)C [Compound 265, (18S)-11,11,16,16-Tetramethyl-2λ^6-thia-3,13,15,22,27-pentaazapentacyclo[21.3.1.115,18.05,14.07,12]octacosa-1(27),5(14),6,12,23,25-hexaene-2,2,4-trione]
ring closure, yield after HPLC ([3]; from CC1(C)C[C@H](CCCNc2cccc(S(=O)(=O)NC(=O)c3cc4c(nc3Cl)C(C)(C)CCC4)n2)CN1, 15-membered ring, K2CO3/3A MS, NMP, 33.9 mM, 170.0 °C, 84.0 h, 2 steps): 11%

Corrector Assay A % activity [2]: + (+ is <30%)
EC50 [2]: > 3000 nM
Structure (SMILES): CC1(C)C[C@@H]2CC[C@H](c3cccc(C(F)(F)F)n3)Nc3cccc(n3)S(=O)(=O)NC(=O)c3ccc(Br)nc3N1C2 [Compound 56, (14S,17R)-8-Bromo-12,12-dimethyl-17-[6-(trifluoromethyl)pyridin-2-yl]-2λ^6-thia-3,9,11,18,23-pentaazatetracyclo[17.3.1.111,14.05,10]tetracosa-1(22),5,7,9,19(23),20-hexaene-2,2,4-trione]
ring closure, yield after HPLC ([3]; from CC1(C)C[C@@H](CCC(Nc2cccc(S(=O)(=O)NC(=O)c3ccc(Br)nc3Cl)n2)c2cccc(C(F)(F)F)n2)CN1, 15-membered ring, K2CO3, DMA, 98.5 mM, 140.0 °C): 21%

Corrector Assay A % activity [2]: +++ (+++ is >60%)
EC50 [2]: < 1000 nM
Corrector Assay B % activity [4]: +++ (+++ is >60%)
EC50 [4]: < 1000 nM
Structure (SMILES): CC(C)(C)c1ccc2c(n1)N1C[C@@H](CCCNc3cccc(n3)S(=O)(=O)NC2=O)CC1(C)C [Compound 296, (14S)-8-tert-Butyl-12,12-dimethyl-2λ^6-thia-3,9,11,18,23-pentaazatetracyclo[17.3.1.111,14.05,10]tetracosa-1(23),5(10),6,8,19,21-hexaene-2,2,4-trione]
ring closure, yield after HPLC ([3]; from CC1(C)C[C@H](CCCNc2cccc(S(=O)(=O)NC(=O)c3ccc(C(C)(C)C)nc3Cl)n2)CN1, 15-membered ring, K2CO3/3A MS, DMSO, 53.4 mM, 165.0 °C, 60.0 h, 2 steps): 43%

Corrector Assay A % activity [2]: ++ (++ is 30-60%)
EC50 [2]: < 1000 nM
Structure (SMILES): CC(C)(C)c1ccnc([C@H]2CC[C@@H]3CN(c4nc(Br)ccc4C(=O)NS(=O)(=O)c4cccc(n4)N2)C(C)(C)C3)c1 [Compound 55, (14S,17R)-8-bromo-17-(4-tert-butylpyridin-2-yl)-12,12-dimethyl-2λ^6-thia-3,9,11,18,23-pentaazatetracyclo[17.3.1.111,14.05,10]tetracosa-1(22),5,7,9,19(23),20-hexaene-2,2,4-trione]
ring closure, yield after HPLC ([3]; from CC1(C)C[C@@H](CCC(Nc2cccc(S(=O)(=O)NC(=O)c3ccc(Br)nc3Cl)n2)c2cc(C(C)(C)C)ccn2)CN1, 15-membered ring, K2CO3, DMA, 97.8 mM, 140.0 °C, 7.0 h): 23%

Corrector Assay A % activity [2]: ++ (++ is 30-60%)
EC50 [2]: < 1000 nM
Structure (SMILES): CC(C)(C)c1ccc2c(n1)N1C[C@@H](CC[C@@H](c3cccc(Br)n3)Nc3cccc(n3)S(=O)(=O)NC2=O)CC1(C)C (single isomer, unassigned) [Compound 214]
ring closure, yield after HPLC [3, 5]: 45%

Corrector Assay A % activity [2]: +++ (+++ is >60%)
EC50 [2]: < 1000 nM
Structure (SMILES): CC(C)(C)c1ccc2c(n1)N1C[C@@H](CC[C@H](c3cccc(Br)n3)Nc3cccc(n3)S(=O)(=O)NC2=O)CC1(C)C (single isomer, unassigned) [Compound 215]
ring closure, yield after HPLC [3, 5]: 46%

Corrector Assay A % activity [2]: + (+ is <30%)
EC50 [2]: < 1000 nM
Structure (SMILES): CC(C)(C)c1ccc2c(n1)N1C[C@@H](CCCn3ccc4ccc(cc43)S(=O)(=O)NC2=O)CC1(C)C [Compound 260, (5S)-11-tert-Butyl-7,7-dimethyl-17λ^6-thia-1,8,10,16-tetraazapentacyclo[16.5.2.15,8.09,14.021,24]hexacosa-9(14),10,12,18,20,22,24-heptaene-15,17,17-trione]
ring closure, yield after HPLC ([3]; from CC(C)(C)OC(=O)N1C[C@@H](CCCn2ccc3ccc(S(=O)(=O)NC(=O)c4ccc(C(C)(C)C)nc4Cl)cc32)CC1(C)C, 15-membered ring, K2CO3, NMP, 118.8 mM, 160.0 °C, 2 steps): 5%
